Measurements from patent US20250289789A1, “REVERSIBLE LYSINE COVALENT MODIFIERS OF CDK2 AND USES THEREOF” (Terremoto Biosciences, Inc., priority 2023, published 2025).
Read-outs that look alike come from different tables or passages of the source.

What was measured:
Assay type in all cases: cell-based
[1] = system: Phospho-Rb Ser807/811 in OVCAR3 cells; test: OVCAR3 Phospho-Rb Ser807/811 HTRF assay; conditions: OVCAR3 cells, Phospho-Rb Ser807/811 HTRF, 1 hour incubation, read-out: pRb-OVCAR3 IC50
Method: Cells were trypsinized and resuspended in 1 mM hydroxyurea (Sigma; H8627), 90% RPMI and 10% fetal bovine serum. […] Dose response curve normalized to DMSO control was plotted using four-parameter logistic model for IC50 calculation.

[2] = target: T1, CDK4-NanoLuc fusion with CCND1 in 293T or 293 cells (Homo sapiens, UniProt P11802); test: NanoBRET Target Engagement (TE) Intracellular Kinase Assay, CDK4/CCND1; conditions: NanoBRET TE intracellular kinase assay, 2-hour incubation, read-out: NanoBRET-CDK4/D1 IC50
T1 construct: host or cells: 293T (ATCC CRL-3216) or 293 (ATCC CRL-1573)
Method: (§1) Inhibitory effects of compounds were measured in NanoBRET TE Intracellular Kinase Assay. […] Cells were co-transfected with 1 μg/mL of CDK-NanoLuc Fusion Vector (Promega; NV2701 for CDK1, NV2781 for CDK2, NV2811 for CDK4, NV2841 for CDK6) and 1 μg/mL of the corresponding Cyclin Expression Vector (Promega; NV2601 for CCNB1, NV2641 for CCNE1, NV2621 for CCND1, NV2631 for CCND3) using FuGENE HD Transfection Reagent (Promega; E2311). […] 20 uL/well of 3× Intracellular TE Nano-Glo Substrate/Inhibitor (Promega; N2162) were added to 384-well plates and incubated for 3 minutes at room temperature. NanoBRET signals (donor emission wavelength at 450 nm, acceptor emission wavelength at 610 nm) were measured using Envision plate reader (PerkinElmer). NanoBRET ratio was calculated by: BRET Ratio=raw signal for acceptor/raw signal for donor. Dose response curve normalized to DMSO control was plotted using four-parameter logistic model for IC50 calculation.

[3] = target: T2, CDK2-NanoLuc fusion with CCNE1 in 293T or 293 cells (Homo sapiens, UniProt P24941); test: NanoBRET Target Engagement (TE) Intracellular Kinase Assay, CDK2/CCNE1; conditions: NanoBRET TE intracellular kinase assay, 2-hour incubation, read-out: NanoBRET-CDK2/E1 IC50
T2 construct: host or cells: 293T (ATCC CRL-3216) or 293 (ATCC CRL-1573)
Method: as §1

T1 sequence (P11802 whole entry, the tested form may be a part): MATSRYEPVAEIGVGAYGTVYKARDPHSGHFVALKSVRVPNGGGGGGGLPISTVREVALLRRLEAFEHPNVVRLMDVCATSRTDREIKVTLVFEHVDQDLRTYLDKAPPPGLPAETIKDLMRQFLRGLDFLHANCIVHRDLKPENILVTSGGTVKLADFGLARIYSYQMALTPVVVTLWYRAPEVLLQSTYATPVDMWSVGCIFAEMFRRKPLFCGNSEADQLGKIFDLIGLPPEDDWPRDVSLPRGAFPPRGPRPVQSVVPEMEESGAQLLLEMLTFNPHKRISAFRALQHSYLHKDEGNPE
T1 sequence (P24385 whole entry partner, the tested form may be a part): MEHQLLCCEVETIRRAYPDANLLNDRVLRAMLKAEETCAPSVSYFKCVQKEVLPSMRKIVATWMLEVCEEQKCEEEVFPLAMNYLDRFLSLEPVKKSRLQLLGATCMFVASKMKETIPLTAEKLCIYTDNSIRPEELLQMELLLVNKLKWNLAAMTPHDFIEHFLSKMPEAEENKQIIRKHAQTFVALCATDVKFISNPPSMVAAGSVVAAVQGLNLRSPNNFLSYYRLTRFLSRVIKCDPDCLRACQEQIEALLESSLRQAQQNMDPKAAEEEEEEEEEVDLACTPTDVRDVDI

Compound | IC50 ([1]; Homo sapiens, OVCAR-3, 1 h) [nM] | IC50 [2] [nM] | IC50 [3] [nM] | IC50 [1] [nM]
COc1cc(O)c(C=O)c(OCC(=O)Nc2cc([C@H]3CC[C@@H](OC(=O)NC4(CC#N)CC4)C3)[nH]n2)c1 [Compound 146] | 40.9 | 2380 | 9.88 | 
COc1cc(O)c(C=O)c(OCC(=O)Nc2cc([C@H]3CC[C@@H](OC(=O)N4CC[C@H](C#N)C4)C3)[nH]n2)c1 [Compound 152] | 30 | 6990 | 7.62 | 
O=Cc1c(O)cccc1OCC(=O)Nc1cc([C@H]2CC[C@@H](OC(=O)N3C4COCC3C4)C2)[nH]n1 [Compound 196] | 102 | 7360 | 6.2 | 
COc1cc(O)c(C=O)c(OCC(=O)Nc2cc([C@H]3CC[C@@H](OC(=O)NCCOC(F)F)C3)n[nH]2)c1 [Compound 116] | 32.3 | 4360 | 4.5 | 
COc1cc(O)c(C=O)c(OCC(=O)Nc2cc([C@H]3CC[C@@H](OC(=O)NCCCC#N)C3)[nH]n2)c1 [Compound 156] | 33.8 | > 10000 | 10.1 | 
COc1cc(O)c(C=O)c(OCC(=O)Nc2cc([C@H]3CC[C@@H](OC(=O)N4CC(F)(F)C4)C3)[nH]n2)c1 [Compound 129] | 44.5 | 7620 | 1.96 | 
COc1cc(O)c(C=O)c(OCC(=O)Nc2cc([C@H]3CC[C@@H](OC(=O)N4C[C@H]5CC[C@@H]4CO5)C3)[nH]n2)c1 [Compound 158] | 24.4 | 3900 | 5.58 | 
COc1cc(O)c(C=O)c(OCC(=O)Nc2cc([C@H]3CC[C@@H](OC(=O)N[C@H](C)CC(F)F)C3)[nH]n2)c1 [Compound 119] | 26.4 | 7860 | 2.31 | 
Cc1cc(O)c(C=O)c(OCC(=O)Nc2cc([C@H]3CC[C@@H](OC(=O)NC4(C#N)CC4)C3)[nH]n2)c1 [Compound 139] | 178 | 3990 | 12.9 | 
Cc1cc(O)c(C=O)c(OCC(=O)Nc2cc([C@H]3CC[C@@H](OC(=O)NC4(C)CC4)C3)[nH]n2)c1 [Compound 145] | 64.3 | 4070 | 3.46 | 
CCN(CC#N)C(=O)O[C@@H]1CC[C@H](c2cc(NC(=O)COc3cc(OC)cc(O)c3C=O)n[nH]2)C1 [Compound 147] | 13.8 | 2260 | 2.85 | 

The next lines start with the values.

IC50 ([1]; Homo sapiens, OVCAR-3, 1 h) [nM] | IC50 [2] [nM] | IC50 [3] [nM] | IC50 [1] [nM] | Compound
20.4 | 3350 | 5.3 |  | COc1cc(O)c(C=O)c2c1CC(C(=O)Nc1cc([C@H]3C[C@@H](OC(=O)NC(C)C)C3)[nH]n1)C2 (single isomer, unassigned) [Compound 282, (1R,3s)-3-(3-((*)-4-formyl-5-hydroxy-7-methoxy-2,3-dihydro-1H-indene-2-carboxamido)-1H-pyrazol-5-yl)cyclobutyl isopropylcarbamate]
25.6 | 5090 | 1.48 |  | CCN(CC)N(C)C(=O)O[C@@H]1CC[C@H](c2cc(NC(=O)COc3cc(OC)cc(O)c3C=O)n[nH]2)C1 [Compound 277, (1R,3S)-3-(3-(2-(2-formyl-3-hydroxy-5-methoxyphenoxy)acetamido)-1H-pyrazol-5-yl)cyclopentyl 2,2-diethyl-1-methylhydrazine-1-carboxylate]
 | > 10000 | 6.25 | 48.6 | COc1cc(O)c(C=O)c2c1CC(C(=O)Nc1cc([C@H]3C[C@@H](OC(=O)N(C)N(C)C)C3)n[nH]1)C2 (single isomer, unassigned) [Compound 270]
95.9 | > 10000 | 4.1 |  | COc1cc(O)c(C=O)c(OCC(=O)Nc2cc([C@H]3CC[C@@H](OC(=O)N4CCCN4C)C3)[nH]n2)c1 [Compound 278, (1R,3S)-3-(3-(2-(2-formyl-3-hydroxy-5-methoxyphenoxy)acetamido)-1H-pyrazol-5-yl)cyclopentyl 2-methylpyrazolidine-1-carboxylate]
57.4 | 3360 | 4.2 |  | COCC(C)(C)NC(=O)O[C@@H]1CC[C@H](c2cc(NC(=O)COc3cc(OC)cc(O)c3C=O)n[nH]2)C1 [Compound 176]
170 | > 10000 | 15 |  | CC(C)NC(=O)O[C@@H]1CC[C@H](c2cc(Nc3nccc4c(C=O)c(O)ccc34)n[nH]2)C1 [Compound 260, (1R,3S)-3-(3-((5-formyl-6-hydroxyisoquinolin-1-yl)amino)-1H-pyrazol-5-yl)cyclopentyl isopropylcarbamate]
115 | > 10000 | 14.1 |  | COc1cc(O)c(C=O)c(OCC(=O)Nc2cc([C@H]3CC[C@@H](OC(=O)NCC4COC4)C3)[nH]n2)c1 [Compound 179]
29.2 | 3270 | 2.45 |  | CCC[C@H](C)NC(=O)O[C@@H]1CC[C@H](c2cc(NC(=O)COc3cc(OC)cc(O)c3C=O)n[nH]2)C1 [Compound 168]
54.7 | > 10000 | 3.17 |  | CCN(C)NC(=O)O[C@@H]1CC[C@H](c2cc(NC(=O)COc3cc(OC)cc(O)c3C=O)n[nH]2)C1 [Compound 274, (1R,3S)-3-(3-(2-(2-formyl-3-hydroxy-5-methoxyphenoxy)acetamido)-1H-pyrazol-5-yl)cyclopentyl 2-ethyl-2-methylhydrazine-1-carboxylate]
29.3 | > 10000 | 3.17 |  | COCC[C@H](C)NC(=O)O[C@@H]1CC[C@H](c2cc(NC(=O)COc3cc(OC)cc(O)c3C=O)n[nH]2)C1 [Compound 177]
39.3 | > 10000 | 2.2 |  | COc1cc(O)c(C=O)c(OCC(=O)Nc2cc([C@H]3CC[C@@H](OC(=O)N4C5CCC(C5)N4C)C3)[nH]n2)c1 (stereo partly drawn) [Compound 272, (1R,3S)-3-(3-(2-(2-formyl-3-hydroxy-5-methoxyphenoxy)acetamido)-1H-pyrazol-5-yl)cyclopentyl 3-methyl-2,3-diazabicyclo[2.2.1]heptane-2-carboxylate]
24.3 | 828 | 2.8 |  | COc1cc(O)c(C=O)c(OCC(=O)Nc2cc([C@H]3CC[C@@H](OC(=O)N[C@@H](C)CC(F)(F)F)C3)[nH]n2)c1 [Compound 167]
167 | > 10000 | 10.3 |  | COc1cc(O)c(C=O)c(OCC(=O)Nc2cc([C@H]3CC[C@@H](OC(=O)NCc4ccccn4)C3)[nH]n2)c1 [Compound 166]
31.6 | > 10000 | 5.09 |  | CCNN(C)C(=O)O[C@@H]1CC[C@H](c2cc(NC(=O)COc3cc(OC)cc(O)c3C=O)n[nH]2)C1 [Compound 276, (1R,3S)-3-(3-(2-(2-formyl-3-hydroxy-5-methoxyphenoxy)acetamido)-1H-pyrazol-5-yl)cyclopentyl 2-ethyl-1-methylhydrazine-1-carboxylate]
27.7 | 6300 | 10.2 |  | COc1cc(O)c(C=O)c(OCC(=O)Nc2cc([C@H]3CC[C@@H](OC(=O)N[C@@H](C)CC#N)C3)[nH]n2)c1 [Compound 163]
51 | 4100 | 4.7 |  | CC1(NC(=O)O[C@@H]2CC[C@H](c3cc(Nc4nccc5c(C=O)c(O)ccc45)n[nH]3)C2)CC1 [Compound 261, (1R,3S)-3-(3-((5-formyl-6-hydroxyisoquinolin-1-yl)amino)-1H-pyrazol-5-yl)cyclopentyl (1-methylcyclopropyl)carbamate]
